# Activity calls are given as the source filed them. The rule behind the calls is not given here.
# System: rodent carcinogenicity bioassays, tumor incidence
# Assay: CCRIS carcinogenicity studies
# Summary of the method: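 NCI-built, expert-reviewed records of carcinogenicity and related test outcomes (mutagenicity, tumor promotion/inhibition) compiled from published and report sources, historical span 1985-2011, not updated.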
compound,measurement,setting,value
CN(C)[C@@H]1C(=O)C(C(N)=O)=C(O)[C@@]2(O)C(=O)C3=C(O)c4c(O)cccc4[C@@](C)(O)[C@H]3[C@H](O)[C@@H]12,carcinogen call,"Species: MOUSE, Strain/Sex: B6C3F1/FEMALE, Route: ORAL, Dose: 0, 6300, 12500 PPM IN DIET FOR 103 WK (STUDY DURATION: 103 WK), Dose: 0, 6300, 12500 PPM IN DIET FOR 103 WK (STUDY DURATION: 103 WK)",inactive; negative
same,carcinogen call,"Species: MOUSE, Strain/Sex: B6C3F1/MALE, Route: ORAL, Dose: 0, 6300, 12500 PPM IN DIET FOR 103 WK (STUDY DURATION: 103 WK), Dose: 0, 6300, 12500 PPM IN DIET FOR 103 WK (STUDY DURATION: 103 WK)",inactive; negative
same,carcinogen call,"Species: RAT, Strain/Sex: F344/FEMALE, Route: ORAL, Dose: 0, 25000, 50000 PPM IN DIET FOR 103 WK (STUDY DURATION: 103 WK), Dose: 0, 25000, 50000 PPM IN DIET FOR 103 WK (STUDY DURATION: 103 WK), Tumor Site: Type of Lesion: PITUITARY GLAND: ADENOMA",equivocal
same,carcinogen call,"Species: RAT, Strain/Sex: F344/MALE, Route: ORAL, Dose: 0, 25000, 50000 PPM IN DIET FOR 103 WK (STUDY DURATION: 103 WK), Dose: 0, 25000, 50000 PPM IN DIET FOR 103 WK (STUDY DURATION: 103 WK), Tumor Site: Type of Lesion: ADRENAL GLAND: PHEOCHROMOCYTOMA",equivocal
O=C(C1CCCCC1)N1CC(=O)N2CCc3ccccc3C2C1 (stereo not drawn),carcinogen call,"Species: HAMSTER, Strain/Sex: SYRIAN/MALE, Route: GAVAGE, Dose: 0, 300 MG/KG IN CORN OIL 1/5 WK FOR A TOTAL OF 5 DOSES (STUDY DURATION: 40 WK)",inactive; negative
CC(=O)[O-].CC(=O)[O-].[OH-].[OH-].[OH-].[OH-].[Pb+2].[Pb+2].[Pb+2],carcinogen call,"Species: MOUSE, Strain/Sex: STRAIN-A/MALE,FEMALE, Route: INTRAPERITONEAL, Dose: 30, 75, 150 MG/KG 3/WK FOR 5 WK, Dose: 30, 75, 150 MG/KG 3/WK FOR 5 WK, Tumor Site: Type of Lesion: LUNG: ADENOMA",active; positive
same,carcinogen call,"Species: MOUSE, Strain/Sex: SWISS/MALE, Route: ORAL, Dose: 0.1% IN DIET FOR TWO YR, Tumor Site: Type of Lesion: KIDNEY: ADENOMA, CARCINOMA",active; positive
same,carcinogen call,"Species: RAT, Strain/Sex: SPRAGUE-DAWLEY/MALE, Route: ORAL, Dose: 1% IN DIET, Tumor Site: Type of Lesion: KIDNEY: ADENOMA, CARCINOMA, BRAIN: GLIOMA",active; positive
same,carcinogen call,"Species: RAT, Strain/Sex: WISTAR/MALE,FEMALE, Route: ORAL, Dose: 0.1, 1.0% IN DIET FOR UP TO 29 MO, Tumor Site: Type of Lesion: KIDNEY: CARCINOMA",active; positive
CCOC(OCC)C(=O)c1ccccc1,carcinogen call,"Species: MOUSE, Strain/Sex: C3H/HEJ/MALE, Route: DERMAL, Dose: 0, 11.3 MG AS A 50% DILUTION IN ACETONE 3/WK FOR LIFESPAN (STUDY DURATION: LIFESPAN)",inactive; negative
same,carcinogen call,"Species: MOUSE, Strain/Sex: C3H/HEJ/MALE, Route: DERMAL, Dose: 0, 25 MG UNDILUTED 3/WK FOR LIFESPAN (STUDY DURATION: LIFESPAN)",inactive; negative
NC(=S)NNC(N)=S,carcinogen call,"Species: MOUSE, Strain/Sex: B6C3F1/FEMALE, Route: ORAL, Dose: 0, 1.0, 2.0% OF DIET FOR 78 WK (STUDY DURATION: 94 WK), Dose: 0, 1.0, 2.0% OF DIET FOR 78 WK (STUDY DURATION: 94 WK), Tumor Site: Type of Lesion: LIVER: HEPATOCELLULAR CARCINOMA",equivocal
same,carcinogen call,"Species: MOUSE, Strain/Sex: B6C3F1/MALE, Route: ORAL, Dose: 0, 1.0, 2.0% OF DIET FOR 78 WK (STUDY DURATION: 94 WK), Dose: 0, 1.0, 2.0% OF DIET FOR 78 WK (STUDY DURATION: 94 WK)",inactive; negative
same,carcinogen call,"Species: RAT, Strain/Sex: F344/FEMALE, Route: ORAL, Dose: 0, 0.6, 1.2% OF DIET FOR 78 WK (STUDY DURATION: 109 WK), Dose: 0, 0.6, 1.2% OF DIET FOR 78 WK (STUDY DURATION: 109 WK)",inactive; negative
same,carcinogen call,"Species: RAT, Strain/Sex: F344/MALE, Route: ORAL, Dose: 0, 0.6, 1.2% OF DIET OR 78 WK (STUDY DURATION: 109 WK), Dose: 0, 0.6, 1.2% OF DIET OR 78 WK (STUDY DURATION: 109 WK)",inactive; negative
CC(=O)Nc1ccc(-c2ccc(N(O)C(C)=O)cc2)cc1,carcinogen call,"Species: RAT, Strain/Sex: STRAIN-CD/FEMALE, Route: INTRAPERITONEAL, Dose: 0, 10, 30 UMOL/KG IN TRIOCTANOIN 2/WK FOR 4 WK (TOTAL DOSES: 13.2, 40.0 UMOL) (STUDY DURATION: 46 WK), Dose: 0, 10, 30 UMOL/KG IN TRIOCTANOIN 2/WK FOR 4 WK (TOTAL DOSES: 13.2, 40.0 UMOL) (STUDY DURATION: 46 WK), Tumor Site: Type of Lesion: MAMMARY GLAND: FIBROADENOMA, ADENOCARCINOMA, EAR (ZYMBAL GLAND): ADENOMA OR CARCINOMA",active; positive
CC(C)=CCC/C(C)=C/C=O,carcinogen call,"Species: MOUSE, Strain/Sex: B3C3F1/FEMALE (50), Route: ORAL, Dose: 0, 500, 1000, 2000 PPM IN MICROCAPSULES IN THE DIET FOR 2 YR (STUDY DURATION: 2 YR), Dose: 0, 500, 1000, 2000 PPM IN MICROCAPSULES IN THE DIET FOR 2 YR (STUDY DURATION: 2 YR), Tumor Site: Type of Lesion: LYMPHATIC SYSTEM: MALIGNANT LYMPHOMA",equivocal
same,carcinogen call,"Species: MOUSE, Strain/Sex: B6C3F1/MALE (50), Route: ORAL, Dose: 0, 500, 1000, 2000 PPM IN MICROCAPSULES IN THE DIET FOR 2 YR (STUDY DURATION: 2 YR), Dose: 0, 500, 1000, 2000 PPM IN MICROCAPSULES IN THE DIET FOR 2 YR (STUDY DURATION: 2 YR)",inactive; negative
same,carcinogen call,"Species: RAT, Strain/Sex: F344/FEMALE, Route: ORAL, Dose: 0, 1000, 2000, 4000 PPM IN MICROCAPSULES IN THE DIET FOR 2 YR (STUDY DURATION: 2 YR), Dose: 0, 1000, 2000, 4000 PPM IN MICROCAPSULES IN THE DIET FOR 2 YR (STUDY DURATION: 2 YR)",inactive; negative
same,carcinogen call,"Species: RAT, Strain/Sex: F344/MALE, Route: ORAL, Dose: 0, 1000, 2000, 4000 PPM IN MICROCAPSULES IN THE DIET FOR 2 YR (STUDY DURATION: 2 YR), Dose: 0, 1000, 2000, 4000 PPM IN MICROCAPSULES IN THE DIET FOR 2 YR (STUDY DURATION: 2 YR)",inactive; negative
COc1cccc2c1C(=O)c1c(O)c3c(c(O)c1C2=O)C[C@@](O)(C(C)=O)C[C@@H]3O[C@H]1C[C@H](N)[C@H](O)[C@H](C)O1,carcinogen call,"Species: RAT, Strain/Sex: SPRAGUE-DAWLEY/FEMALE, Route: INTRAVENOUS, Dose: 0, 10 MG/KG IN SALINE ONCE (STUDY DURATION: 244 D) (STUDY DURATION: 244 D), Tumor Site: Type of Lesion: MAMMARY GLAND: TUMOR",active; positive
same,carcinogen call,"Species: RAT, Strain/Sex: SPRAGUE-DAWLEY/FEMALE, Route: INTRAVENOUS, Dose: 0, 10 MG/KG IN SALINE SOLUTION ONCE (STUDY DURATION: 1 YR), Tumor Site: Type of Lesion: MAMMARY GLAND: ADENOCARCINOMA",active; positive
same,carcinogen call,"Species: RAT, Strain/Sex: SPRAGUE-DAWLEY/FEMALE, Route: SUBCUTANEOUS, Dose: 0, 2, 4, 8 UG IN 100 µL SALINE INTO THORACIC AND ABDOMINAL MAMMARY GLANDS ONCE (STUDY DURATION: 6.5 MO), Dose: 0, 2, 4, 8 UG IN 100 µL SALINE INTO THORACIC AND ABDOMINAL MAMMARY GLANDS ONCE (STUDY DURATION: 6.5 MO), Tumor Site: Type of Lesion: MAMMARY GLAND: TUMOR",active; positive
same,carcinogen call,"Species: RAT, Strain/Sex: SPRAGUE-DAWLEY/MALE, Route: INTRAVENOUS, Dose: 0, 10 MG/KG IN SALINE SOLUTION ONCE (STUDY DURATION: 1 YR), Tumor Site: Type of Lesion: MAMMARY GLAND: ADENOCARCINOMA",active; positive
CCCCCCC(=O)O[C@H]1CC[C@H]2[C@@H]3CCC4=CC(=O)CC[C@]4(C)[C@H]3CC[C@]12C,carcinogen call,"Species: RAT, Strain/Sex: WISTAR/FEMALE, Route: INTRAMUSCULAR, Dose: 0, 12.5 MG 1/WK FOR 24 WK (STUDY DURATION: 24 WK), Tumor Site: Type of Lesion: BLADDER: PAPILLOMA OR CARCINOMA",active; positive
same,carcinogen call,"Species: RAT, Strain/Sex: WISTAR/FEMALE, Route: INTRAMUSCULAR, Dose: 0, 12.5 MG 1/WK FOR 24 WK ADMINISTERED TO OOPHORECTOMIZED RATS (STUDY DURATION: 24 WK)",inactive; negative
Cc1cccc2ccccc12,carcinogen call,"Species: MOUSE, Strain/Sex: B6C3F1/FEMALE, Route: ORAL, Dose: 0, 0.075, 0.15% IN DIET FOR 81 WK (STUDY DURATION: 81 WK), Dose: 0, 0.075, 0.15% IN DIET FOR 81 WK (STUDY DURATION: 81 WK)",inactive; negative
same,carcinogen call,"Species: MOUSE, Strain/Sex: B6C3F1/MALE, Route: ORAL, Dose: 0, 0.075, 0.15% IN DIET FOR 81 WK (STUDY DURATION: 81 WK), Dose: 0, 0.075, 0.15% IN DIET FOR 81 WK (STUDY DURATION: 81 WK), Tumor Site: Type of Lesion: LUNG: ADENOMA",active; positive

# — PubChem BioAssay AID1259411 (Chemical Carcinogenesis Research Information System (CCRIS), 2018)
